Among the test systems are NCI-H522; TK-10; MDA-N; HL-60; MOLT-4; EKVX; LOX IMVI; SNB-19; OVCAR-3; HCT-15; SK-OV-3; ACHN; MCF7; IGROV-1; SF-539; PC-3; A498; HOP-92; T47D; K562.
Assay in all cases: NCI anticancer screen, dose series, 48 h

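Step 1: Grow cells in 96-well plates. Step 2: Expose to compound for 48 hours at 5 concentrations. Step 3: Interpolate endpoints linearly; if unreached, use highest concentration. Abbreviation: GI50, concentration required for 50% inhibition of growth.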 The source made the active and inactive calls. Rule as the data show it: active = GI50 up to about 1.1 µM and inactive = higher.

With `Nc1nc(Cl)c(C=O)c(NCC2(CO)CC(CCc3ccccc3)C2)n1` (stereo not given), the GI50 with NCI-H522 was 1.71 µM (inactive); in the test with TK-10 it was 15.2 µM (inactive); in the test with MDA-N it was 6.59 µM (inactive); in the test on HL-60, 1.67 µM (inactive); in the test with MOLT-4, 2.62 µM (inactive); in the test on EKVX it was 3.94 µM (inactive). Also, the GI50 with LOX IMVI is 2.95 µM (inactive); with SNB-19, 13.7 µM (inactive); with OVCAR-3, 11.3 µM (inactive); in the test on HCT-15, 4.18 µM; with SK-OV-3 it was 11.3 µM (inactive); in the test on ACHN, 12.7 µM (inactive). For the same compound, the GI50 in the test on MCF7 was 9.16 µM (inactive); with IGROV-1, 1.74 µM (inactive); in the test with SF-539, 12.4 µM (inactive); in the test with PC-3, 6.43 µM (inactive); in the test on A498, 11.7 µM (inactive); with HOP-92 it was 1.77 µM (inactive). The results for the GI50 with T47D and with K562 were 1.34 µM (inactive) and 1.88 µM (inactive), respectively.

For `COC(=O)[C@]12CC[C@H]3CC[C@H]([C@H]31)[C@H](c1ccccc1)N2`, the GI50 with NCI-H522 is 20.5 µM (inactive); with TK-10 it was 17.2 µM (inactive); with MDA-N, 17.9 µM (inactive); in the test with HL-60, 19.1 µM (inactive); in the test with MOLT-4, 12.9 µM (inactive); in the test on EKVX it was 16.8 µM (inactive). Further, the GI50 with LOX IMVI is 17.3 µM (inactive); in the test with SNB-19, 23 µM (inactive); in the test on OVCAR-3, 15.2 µM (inactive); in the test with HCT-15 it was 18.2 µM; in the test with SK-OV-3 it was 25.4 µM (inactive); in the test with ACHN, 17.6 µM (inactive). Besides, the GI50 in the test with MCF7 was 16 µM (inactive); in the test with IGROV-1 it was 17 µM (inactive); in the test with SF-539, 16.5 µM (inactive); with PC-3, 16.3 µM (inactive); in the test with A498, 17.6 µM (inactive); with HOP-92, 15.8 µM (inactive). The figures for the GI50 with T47D and in the test on K562 were 16.4 µM (inactive) and 14.2 µM (inactive), respectively.

With `O=C(NNS(=O)(=O)c1ccccc1)c1cccnc1`, the GI50 with NCI-H522, in the test on TK-10, with MDA-N, in the test with HL-60, in the test on MOLT-4 and in the test on EKVX was > 100 µM (inactive) in each case. Further, the GI50 in the test with LOX IMVI is > 100 µM (inactive); in the test with SNB-19, > 100 µM (inactive); in the test with OVCAR-3 it was > 100 µM (inactive); in the test with HCT-15, more than 100 µM; with SK-OV-3, > 100 µM (inactive); with ACHN, > 100 µM (inactive). The GI50 with MCF7, in the test on IGROV-1, in the test on SF-539, in the test on PC-3, in the test on A498 and in the test with HOP-92 was > 100 µM (inactive) each time. In addition, the GI50 in the test on T47D and in the test on K562 was > 100 µM (inactive) throughout.

These data come from ChEMBL document CHEMBL1201862, “PubChem BioAssay data set” (2004).
